Laboratory results published in patent publication US8921576B2, “Spiroindoline compound, and medicinal agent comprising same” (Kowa Company, Ltd., priority 2011, dated 2014).

Molecular target: T1, GST-GK derived from human liver GK (Homo sapiens, UniProt P35557)
T1 construct: made in house; host or cells: Escherichia coli DH5α
T1 sequence (P35557 1-466 isoform P35557-2): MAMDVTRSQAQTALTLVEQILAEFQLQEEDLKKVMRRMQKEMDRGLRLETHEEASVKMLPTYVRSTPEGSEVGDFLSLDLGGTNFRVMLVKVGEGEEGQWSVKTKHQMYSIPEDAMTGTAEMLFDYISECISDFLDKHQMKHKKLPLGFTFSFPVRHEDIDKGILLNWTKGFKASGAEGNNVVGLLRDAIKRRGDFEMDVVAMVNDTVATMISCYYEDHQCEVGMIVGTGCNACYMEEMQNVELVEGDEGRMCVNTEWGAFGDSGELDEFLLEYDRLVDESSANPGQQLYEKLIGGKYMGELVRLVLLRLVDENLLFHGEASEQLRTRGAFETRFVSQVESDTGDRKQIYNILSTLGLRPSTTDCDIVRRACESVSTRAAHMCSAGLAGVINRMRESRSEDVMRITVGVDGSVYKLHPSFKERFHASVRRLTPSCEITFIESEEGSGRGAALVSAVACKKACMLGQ
Assay: In vitro GK activity measurement test (G6PDH-coupled, OD340)
Format: biochemical
Conditions: test compound 1 μmol/L; glucose 2.5 mmol/L; 25° C.; OD340 slope with compound / without compound; read-out: GK activation rate (%)
Excerpt: cDNA (GenBank Accession No. NM_033507, human glucokinase, variant 2) encoding human liver-type GK polypeptide was cloned by performing a polymerase chain reaction (hereinafter referred to as “PCR”) using a human liver cDNA library (Human liver QUICK-Clone cDNA, TAKARA BIO INC.), and the thus cloned cDNA was then introduced into an expression vector (pGEX-3X, GE Healthcare Japan) for glutathione S transferase (hereinafter referred to as GST) fusion protein expression. The resulting vector was introduced into Escherichia coli (Competent high DH5α, Toyobo Co., Ltd.), and the transformed Escherichia coli was then cultured at 37° C. Thereafter, Isopropyl β-D-1-thiogalactopyranoside (final concentration: 1 mmol/L, Sigma Aldrich Japan) was added to the culture, and the obtained mixture was then cultured at 30° C. for 3 hours. Thereafter, a cell mass was recovered. The recovered cell mass was subjected to freezing-and-thawing, and the resulting cell mass was then suspended in phosphate buffer with final concentration of 1% Triton X-100, followed by disintegration with an ultrasonic disruptor. The homogenate was centrifuged at 33,200 rpm at 4° C. for 1 hour. Thereafter, the supernatant was recovered, and a GST-GK fusion protein was then purified using a glutathione column (GSTrap FF, GE Healthcare Japan). The obtained GST-GK fusion protein was divided into some portions each having a small volume, and the thus divided proteins were then preserved at −80° C.
A GK assay method was carried out at 25° C. at a final incubation volume of 100 μL in a flat-bottom 96-well assay plate. An assay buffer comprised 25 mmol/L Hepes buffer (pH 7.1), 25 mmol/L KCl, 2.5 mmol/L or 10 mmol/L D-glucose, 5 mmol/L ATP, 1 mmol/L nicotinamide adenine dinucleotide phosphate (abbreviated as NADP), 2 mmol/L MgCl2, 1 mmol/L dithiothreitol (DTT), 2 units/mL glucose-6 phosphate dehydrogenase (G6PDH), and 1 μg/mL GST-GK derived from human liver GK. ATP, G6PDH, and NADP were purchased from Roche Diagnostics. […] The thus mixed solution was preincubated in an incubator in which the temperature was controlled at 25° C. for 15 minutes. Subsequently, the reaction was initiated by adding 10 μL of the GST-GK solution to the reaction mixture, resulting in a final concentration of 0.1 μg/mL. After initiation of the reaction, an increase in the optical concentration at 340 nm (OD340) was monitored with a microplate spectrophotometer (Varsamax, Molecular Devices Japan K.K.) every 10 seconds over an incubation period of 10 minutes. An inclination of the OD340 increase was defined as raw data. The GK activating rate was indicated as a numerical value obtained from the expression: (Inclination of OD340 increase by addition of the test compound)/(inclination of OD340 increase without addition of the test compound). The results of the GK activating rate obtained at a test compound concentration of 1 μmol/L under the condition of a glucose concentration of 2.5 mmol/L are shown in the following table.

| activity at 1 µM [%] | SMILES |
| --- | --- |
| 640 | COc1ccc2nc(NC(=O)N3CC4(CCN(C(C)=O)C4)c4cc(S(=O)(=O)NCc5ccccc5F)ccc43)sc2n1 (stereo not shown) [Example 269, 1′-Acetyl-5-(N-(2-fluorobenzyl)sulfamoyl)-N-(5-methoxythiazolo[5,4-b]pyridin-2-yl)spiro[indoline-3,3′-pyrrolidine]-1-carboxamide] |
| 459 | O=C(NCCCCO)N1CCC2(C1)CN(C(=O)Nc1ncc(Cl)s1)c1ccc(Cl)cc12 (stereo not shown) [Example 470, 5-chloro-N1-(5-chlorothiazol-2-yl)-N1′-(4-hydroxybutyl)spiro[indoline-3,3′-pyrrolidine]-1,1′-dicarboxamide] |
| 506 | COC(=O)N1CCC2(C1)CN(C(=O)Nc1ncc(SCCCC(=O)N3CC(O)C3)s1)c1ccc(Cl)cc12 (stereo not shown) [Example 170, methyl 5-chloro-1-((5-((4-(3-hydroxyazetidin-1-yl)-4-oxobutyl)thio)thiazol-2-yl)carbamoyl)spiro[indoline-3,3′-pyrrolidine]-1′-carboxylate] |
| 535 | CCOC(=O)CCCc1ccc2c(c1)C1(CCN(C(=O)NC)C1)CN2C(=O)Nc1ncc(Cl)s1 (stereo not shown) [Example 419, ethyl 4-(1-((5-chlorothiazol-2-yl)carbamoyl)-1′-(methylcarbamoyl)spiro[indoline-3,3′-pyrrolidin]-5-yl)butanoate] |
| 818 | COC(=O)N1CC[C@@]2(C1)CN(C(=O)Nc1ncc(Cl)s1)c1ccc(Br)cc12 [Example 320, (S)-methyl 5-bromo-1-((5-chlorothiazol-2-yl)carbamoyl)spiro[indoline-3,3′-pyrrolidin]-1′-ylcarboxylate] |
| 445 | CC(=O)N1CC(CNC(=O)N2CCC3(C2)CN(C(=O)Nc2ncc(Cl)s2)c2ccc(Cl)cc23)C1 (stereo not shown) [Example 476, N1′-((1-acetylazetidin-3-yl)methyl)-5-chloro-N1-(5-chlorothiazol-2-yl)spiro[indoline-3,3′-pyrrolidine]-1,1′-dicarboxamide] |
| 432 | CC(=O)N1CCC2(C1)CN(C(=O)Nc1ncc(Cl)s1)c1ccc(C(F)(F)F)cc12 (stereo not shown) [Example 431, 1′-acetyl-N-(5-chlorothiazol-2-yl)-5-(trifluoromethyl)spiro[indoline-3,3′-pyrrolidine]-1-carboxamide] |
| 602 | O=C(NO)N1CCC2(C1)CN(C(=O)Nc1ncc(Cl)s1)c1ccc(Cl)cc12 (stereo not shown) [Example 481, 5-chloro-N1-(5-chlorothiazol-2-yl)-N1′-hydroxyspiro[indoline-3,3′-pyrrolidine]-1,1′-dicarboxamide] |
| 689 | COCCN(CC1CC1)S(=O)(=O)c1ccc2c(c1)C1(CCN(C(C)=O)C1)CN2C(=O)Nc1nc2ccc(OC)nc2s1 (stereo not shown) [Example 300, 1′-Acetyl-5-(N-(cyclopropylmethyl)-N-(2-methoxyethyl)sulfamoyl)-N-(5-methoxythiazolo[5,4-b]pyridin-2-yl)spiro[indoline-3,3′-pyrrolidine]-1-carboxamide] |
| 575 | COC(=O)N1CCC2(C1)CN(C(=O)Nc1ncc(SCCCNC(=O)C3CC3)s1)c1ccc(Cl)cc12 (stereo not shown) [Example 454, methyl 5-chloro-1-((5-((3-(cyclopropanecarboxamido)propyl)thio)thiazol-2-yl)carbamoyl)spiro[indoline-3,3′-pyrrolidine]-1′-carboxylate] |
| 528 | CNC(=O)N1CC[C@@]2(C1)CN(C(=O)Nc1ncc(Cl)s1)c1ccc(C#N)cc12 [Example 376, (R)—N1-(5-Chlorothiazol-2-yl)-5-cyano-N1′-methylspiro[indoline-3,3′-pyrrolidine]-1,1′-dicarboxamide] |
| 887 | COC(=O)N1CCC2(C1)CN(C(=O)Nc1nc3ccc(OC)nc3s1)c1ccc(S(=O)(=O)N(CCC(=O)O)Cc3ccccc3)cc12 (stereo not shown) [Example 307, 3-(N-benzyl-1′-(methoxycarbonyl)-1-((5-methoxythiazolo[5,4-b]pyridin-2-yl)carbamoyl)spiro[indoline-3,3′-pyrrolidin]-5-ylsulfonamido)propionic acid] |
| 514 | COC(=O)N1CCC2(C1)CN(C(=O)Nc1ncc(SCCCO)s1)c1ccc(Cl)cc12 (stereo not shown) [Example 161, Methyl 5-chloro-1-((5-((3-hydroxypropyl)thio)thiazol-2-yl)carbamoyl)spiro[indoline-3,3′-pyrrolidine]-1′-carboxylate] |
| 474 | CNC(=O)CCNC(=O)N1CCC2(C1)CN(C(=O)Nc1ncc(Cl)s1)c1ccc(Cl)cc12 (stereo not shown) [Example 465, 5-Chloro-N1-(5-chlorothiazol-2-yl)-N1′-(3-(methylamino)-3-oxopropyl)spiro[indoline-3,3′-pyrrolidine]-1,1′-dicarboxamide] |
| 506 | COc1cnc(NC(=O)N2CC3(CCN(C(C)=O)C3)c3cc(C(F)(F)F)ccc32)s1 (stereo not shown) [Example 437, 1′-Acetyl-N-(5-methoxythiazol-2-yl)-5-(trifluoromethyl)spiro[indoline-3,3′-pyrrolidine]-1-carboxamide] |
| 470 | O=C(CCCNC(=O)N1CCC2(C1)CN(C(=O)Nc1ncc(Cl)s1)c1ccc(Cl)cc12)N1CCC1 (stereo not shown) [Example 471, N1′-(4-(Azetidin-1-yl)-4-oxobutyl)-5-chloro-N1-(5-chlorothiazol-2-yl)spiro[indoline-3,3′-pyrrolidine]-1,1′-dicarboxamide] |
| 613 | CNC(=O)N1CCC2(C1)CN(C(=O)Nc1ncc(Cl)s1)c1ccc(C(F)(F)F)cc12 (stereo not shown) [Example 432, N1-(5-Chlorothiazol-2-yl)-N1′-methyl-5-(trifluoromethyl)spiro[indoline-3,3′-pyrrolidine]-1,1′-dicarboxamide] |
| 636 | COC(=O)N1CC[C@@]2(C1)CN(C(=O)Nc1ncc(F)s1)c1ccc(Cl)cc12 [Example 355, (S)-methyl 5-chloro-1-((5-fluorothiazol-2-yl)carbamoyl)spiro[indoline-3,3′-pyrrolidine]-1′-carboxylate] |
| 843 | COc1ccc2nc(NC(=O)N3CC4(CCN(C(C)=O)C4)c4cc(S(=O)(=O)N(CCO)CC5CC5)ccc43)sc2n1 (stereo not shown) [Example 302, 1′-acetyl-5-(N-(cyclopropylmethyl)-N-(2-hydroxyethyl)sulfamoyl)-N-(5-methoxythiazolo[5,4-b]pyridin-2-yl)spiro[indoline-3,3′-pyrrolidine]-1-carboxamide] |
| 500 | CC(=O)N1CC(CNC(=O)N2CCC3(C2)CN(C(=O)Nc2ncc(Cl)s2)c2ccc(C(F)(F)F)cc23)C1 (stereo not shown) [Example 445, N1′-((1-acetylazetidin-3-yl)methyl)-N1-(5-chlorothiazol-2-yl)-5-(trifluoromethyl)spiro[indoline-3,3′-pyrrolidine]-1,1′-dicarboxamide] |
| 793 | COCCN(Cc1ccccc1)S(=O)(=O)c1ccc2c(c1)C1(CCN(C(C)=O)C1)CN2C(=O)Nc1nc2ccc(OC)nc2s1 (stereo not shown) [Example 288, 1′-Acetyl-5-(N-benzyl-N-(2-methoxyethyl)sulfamoyl)-N-(5-methoxythiazolo[5,4-b]pyridin-2-yl)spiro[indoline-3,3′-pyrrolidine]-1-carboxamide] |
| 752 | COCCCN(Cc1ccccc1)S(=O)(=O)c1ccc2c(c1)C1(CCN(C(C)=O)C1)CN2C(=O)Nc1nc2ccc(OC)nc2s1 (stereo not shown) [Example 289, 1′-Acetyl-5-(N-benzyl-N-(3-methoxypropyl)sulfamoyl)-N-(5-methoxythiazolo[5,4-b]pyridin-2-yl)spiro[indoline-3,3′-pyrrolidine]-1-carboxamide] |
